Results: ChEMBL document CHEMBL3044921, “Synthesis, characterization, and SAR studies of new (1H-indol-3-yl)alkyl-3-(1H-indol-3-yl)propanamide derivatives as possible antimicrobial and antitubercular agents” (2013)
In brackets after ≈: the same amount, converted by molar mass.

system: Talaromyces marneffei; assay: Antifungal activity against Talaromyces marneffei assessed as growth inhibition at […] to […] ug/ml after 3 to 4 days by agar well diffusion method; assay type: functional; settings: not given

Q: For `Cn1cc(CCC(=O)NCc2c[nH]c3ccc(OC(F)(F)F)cc23)c2cc(Cl)ccc21`, which “diameter of the inhibition zone (DIZ)” value is on record?
A: 11 mm

system: Aspergillus fumigatus; assay: Antifungal activity against Aspergillus fumigatus NCIM 902 assessed as growth inhibition at […] to […] ug/ml after 3 to 4 days by agar well diffusion method; assay type: functional; settings: not given

Q: How did the “diameter of the inhibition zone (DIZ)” value turn out when `Cn1cc(CCC(=O)NCc2c[nH]c3ccc(OC(F)(F)F)cc23)c2cc(Cl)ccc21` was run?
A: 16 mm

system: Aspergillus flavus; assay: Antifungal activity against Aspergillus flavus NCIM 524 assessed as growth inhibition at […] to […] ug/ml after 3 to 4 days by agar well diffusion method; assay type: functional; settings: not given

Q: `Cn1cc(CCC(=O)NCc2c[nH]c3ccc(OC(F)(F)F)cc23)c2cc(Cl)ccc21` was tested. Which “diameter of the inhibition zone (DIZ)” value did it give?
A: 16 mm

system: Candida albicans; assay: Antifungal activity against Candida albicans assessed as growth inhibition after 3 to 4 days by serial plate dilution method; assay type: functional; settings: not given

Q: `Cn1cc(CCC(=O)NCc2c[nH]c3ccc(OC(F)(F)F)cc23)c2cc(Cl)ccc21` was tested. Which MIC did it give?
A: 12.5 µg/mL (≈ 27.8 µM)

system: Trichophyton mentagrophytes; assay: Antifungal activity against Trichophyton mentagrophytes assessed as growth inhibition after 3 to 4 days by serial plate dilution method; assay type: functional; settings: not given

Q: Which MIC does the source give for `Cn1cc(CCC(=O)NCc2c[nH]c3ccc(OC(F)(F)F)cc23)c2cc(Cl)ccc21` here?
A: 25 µg/mL (≈ 55.6 µM)

system: Talaromyces marneffei; assay: Antifungal activity against Talaromyces marneffei assessed as growth inhibition after 3 to 4 days by serial plate dilution method; assay type: functional; settings: not given

Q: Which MIC does the source give for `Cn1cc(CCC(=O)NCc2c[nH]c3ccc(OC(F)(F)F)cc23)c2cc(Cl)ccc21` here?
A: 12.5 µg/mL (≈ 27.8 µM)

system: Aspergillus fumigatus; assay: Antifungal activity against Aspergillus fumigatus NCIM 902 assessed as growth inhibition after 3 to 4 days by serial plate dilution method; assay type: functional; settings: not given

Q: Which MIC does the source give for `Cn1cc(CCC(=O)NCc2c[nH]c3ccc(OC(F)(F)F)cc23)c2cc(Cl)ccc21` here?
A: 6.25 µg/mL (≈ 13.9 µM)

system: Aspergillus flavus; assay: Antifungal activity against Aspergillus flavus NCIM 524 assessed as growth inhibition after 3 to 4 days by serial plate dilution method; assay type: functional; settings: not given

Q: Which MIC does the source give for `Cn1cc(CCC(=O)NCc2c[nH]c3ccc(OC(F)(F)F)cc23)c2cc(Cl)ccc21` here?
A: 6.25 µg/mL (≈ 13.9 µM)

system: Streptococcus pyogenes; assay type: functional; settings: not given

Q: `Cn1cc(CCC(=O)NCc2c[nH]c3ccc(OC(F)(F)F)cc23)c2cc(Cl)ccc21` was tested. Which “diameter of the inhibition zone (DIZ)” value did it give?
A: 16 mm

system: Klebsiella pneumoniae; assay type: functional; settings: not given

Q: Which “diameter of the inhibition zone (DIZ)” value does the source give for `Cn1cc(CCC(=O)NCc2c[nH]c3ccc(OC(F)(F)F)cc23)c2cc(Cl)ccc21` here?
A: 16 mm

system: Pseudomonas aeruginosa; assay type: functional, ATCC 27853; settings: not given

Q: With `Cn1cc(CCC(=O)NCc2c[nH]c3ccc(OC(F)(F)F)cc23)c2cc(Cl)ccc21` as the molecule, how does the “diameter of the inhibition zone (DIZ)” value read?
A: 16 mm

system: Staphylococcus aureus; assay type: functional, ATCC 25923; settings: not given

Q: For `Cn1cc(CCC(=O)NCc2c[nH]c3ccc(OC(F)(F)F)cc23)c2cc(Cl)ccc21`, which “diameter of the inhibition zone (DIZ)” value is on record?
A: 16 mm

system: Streptococcus pyogenes; assay: Antibacterial activity against Streptococcus pyogenes assessed as growth inhibition after 16 to 18 hr by serial plate dilution method; assay type: functional; settings: not given

Q: `Cn1cc(CCC(=O)NCc2c[nH]c3ccc(OC(F)(F)F)cc23)c2cc(Cl)ccc21` was tested. Which MIC did it give?
A: 6.25 µg/mL (≈ 13.9 µM)

system: Mycolicibacterium fortuitum; assay: Antitubercular activity against Mycobacterium fortuitum ATCC 19542 assessed as growth inhibition at 0.3125 to 5 ug/mL after 7 days by resazurin reduction test; assay type: functional; settings: ATCC 19542, 168 h

Q: With `Cn1cc(CCC(=O)NCc2c[nH]c3ccc(OC(F)(F)F)cc23)c2cc(Cl)ccc21` as the molecule, how does the MIC read?
A: 10 µg/mL (≈ 22.2 µM)

system: Mycolicibacterium smegmatis; assay: Antitubercular activity against Mycobacterium smegmatis ATCC 19420 assessed as growth inhibition at 0.3125 to 5 ug/mL after 7 days by resazurin reduction test; assay type: functional; settings: ATCC 19420, 168 h

Q: `Cn1cc(CCC(=O)NCc2c[nH]c3ccc(OC(F)(F)F)cc23)c2cc(Cl)ccc21` was tested. Which MIC did it give?
A: 1.25 µg/mL (≈ 2.78 µM)

system: Mycobacterium tuberculosis; assay: Antitubercular activity against Mycobacterium tuberculosis H37Rv ATCC 27294 assessed as growth inhibition at 0.3125 to 5 ug/mL after 7 days by resazurin reduction test; assay type: functional; settings: H37Rv ATCC 27294, 168 h

Q: With `Cn1cc(CCC(=O)NCc2c[nH]c3ccc(OC(F)(F)F)cc23)c2cc(Cl)ccc21` as the molecule, how does the MIC read?
A: 0.625 µg/mL (≈ 1.39 µM)

system: Mycolicibacterium smegmatis; assay: Antitubercular activity against Mycobacterium smegmatis ATCC 19420 assessed as growth inhibition at 1 to 100 ug/mL after 7 days by resazurin reduction test; assay type: functional; settings: ATCC 19420, 168 h

Q: How did the MIC turn out when `Cn1cc(CCC(=O)NCc2c[nH]c3ccc(OC(F)(F)F)cc23)c2cc(Cl)ccc21` was run?
A: 1 µg/mL (≈ 2.22 µM)

system: Mycolicibacterium fortuitum; assay: Antitubercular activity against Mycobacterium fortuitum ATCC 19542 assessed as growth inhibition at 1 to 100 ug/mL after 7 days by resazurin reduction test; assay type: functional; settings: ATCC 19542, 168 h

Q: With `Cn1cc(CCC(=O)NCc2c[nH]c3ccc(OC(F)(F)F)cc23)c2cc(Cl)ccc21` as the molecule, how does the MIC read?
A: 10 µg/mL (≈ 22.2 µM)

system: Mycobacterium tuberculosis; assay: Antitubercular activity against Mycobacterium tuberculosis H37Rv ATCC 27294 assessed as growth inhibition at 1 to 100 ug/mL after 7 days by resazurin reduction test; assay type: functional; settings: not given

Q: `Cn1cc(CCC(=O)NCc2c[nH]c3ccc(OC(F)(F)F)cc23)c2cc(Cl)ccc21` was tested. Which “growth inhibition (GI)” value did it give?
A: 95%

same assay, conditions: Mycobacterium tuberculosis, H37Rv ATCC 27294, 168 h

Q: `Cn1cc(CCC(=O)NCc2c[nH]c3ccc(OC(F)(F)F)cc23)c2cc(Cl)ccc21` was tested. Which MIC did it give?
A: 1 µg/mL (≈ 2.22 µM)

system: Candida albicans; assay: Antifungal activity against Candida albicans assessed as growth inhibition at […] to […] ug/ml after 3 to 4 days by agar well diffusion method; assay type: functional; settings: not given

Q: How did the “diameter of the inhibition zone (DIZ)” value turn out when `Cn1cc(CCC(=O)NCc2c[nH]c3ccc(OC(F)(F)F)cc23)c2cc(Cl)ccc21` was run?
A: 11 mm

system: Trichophyton mentagrophytes; assay: Antifungal activity against Trichophyton mentagrophytes assessed as growth inhibition at […] to […] ug/ml after 3 to 4 days by agar well diffusion method; assay type: functional; settings: not given

Q: `Cn1cc(CCC(=O)NCc2c[nH]c3ccc(OC(F)(F)F)cc23)c2cc(Cl)ccc21` was tested. Which “diameter of the inhibition zone (DIZ)” value did it give?
A: <10 mm

system: Klebsiella pneumoniae; assay: Antibacterial activity against Klebsiella pneumoniae assessed as growth inhibition after 16 to 18 hr by serial plate dilution method; assay type: functional; settings: not given

Q: Which MIC does the source give for `Cn1cc(CCC(=O)NCc2c[nH]c3ccc(OC(F)(F)F)cc23)c2cc(Cl)ccc21` here?
A: 6.25 µg/mL (≈ 13.9 µM)

system: Pseudomonas aeruginosa; assay: Antibacterial activity against Pseudomonas aeruginosa ATCC 27853 assessed as growth inhibition after 16 to 18 hr by serial plate dilution method; assay type: functional; settings: not given

Q: With `Cn1cc(CCC(=O)NCc2c[nH]c3ccc(OC(F)(F)F)cc23)c2cc(Cl)ccc21` as the molecule, how does the MIC read?
A: 6.25 µg/mL (≈ 13.9 µM)

system: Escherichia coli; assay: Antibacterial activity against Escherichia coli […] assessed as growth inhibition after 16 to 18 hr by serial plate dilution method; assay type: functional; settings: not given

Q: Which MIC does the source give for `Cn1cc(CCC(=O)NCc2c[nH]c3ccc(OC(F)(F)F)cc23)c2cc(Cl)ccc21` here?
A: 6.25 µg/mL (≈ 13.9 µM)

system: Staphylococcus aureus; assay: Antibacterial activity against Staphylococcus aureus ATCC 25923 assessed as growth inhibition after 16 to 18 hr by serial plate dilution method; assay type: functional; settings: not given

Q: With `Cn1cc(CCC(=O)NCc2c[nH]c3ccc(OC(F)(F)F)cc23)c2cc(Cl)ccc21` as the molecule, how does the MIC read?
A: 6.25 µg/mL (≈ 13.9 µM)

system: Escherichia coli; assay type: functional, ATCC 24922; settings: not given

Q: With `Cn1cc(CCC(=O)NCc2c[nH]c3ccc(OC(F)(F)F)cc23)c2cc(Cl)ccc21` as the molecule, how does the “diameter of the inhibition zone (DIZ)” value read?
A: 16 mm
